# Data published in article PMC8949503, “Radiosynthesis and Preclinical Evaluation of Bispecific PSMA/FAP Heterodimers for Tumor Imaging” (Pharmaceuticals, 2022).
# Tests used:
# [1] = n-octanol/PBS partition coefficient (logD); format: physicochemical; conditions: PBS pH 7.4, ambient temperature
# Procedure: An aliquot (74 kBq) of [^18F]AlF-PSMA-FAPI-01 or [^18F]AlF-PSMA-FAPI-02 was added to a centrifuge tube containing a mixture of phosphate-buffered solution (PBS, pH 7.4, 5.0 mL) and n-octanol (5.0 mL). The mixture was vigorously vortexed at ambient temperature for 5 min and then centrifuged (10,000 rpm, 5 min). Three samples (each 100 µL) from each phase underwent radioactivity measurement using a γ-counter (CAPRAC-R, Capintec, Inc., Ramsey, NJ, USA).
# A549-FAP cells [2] = test: cell uptake and blocking study in A549-FAP cells; format: cell-based; conditions: for cell uptake, blocked: +DOTA-FAPI-04 (2.3 μM)
# Procedure: PSMA-positive 22Rv1 cells (purchased from Institute of Biochemistry and Cell Biology, Shanghai, China) and stably FAP-transfected A549-FAP cells (acquired using lentiviral infection) were used for the cell-based experiments. The 22Rv1 cells were cultivated in RPMI-1640 medium (Gibco) at 37 °C/5% carbon dioxide, while the A549-FAP cells were cultivated in DMEM medium. Both media were supplemented with 10% heat-inactivated fetal bovine serum (FBS) and 1% penicillin/streptomycin (Gibco). Puromycin (1 µg/mL) was also added to the media to maintain FAP expression.
# Cells were seeded in 12-well plates 2 days in advance to achieve a final confluence of approximately 80–90% (4–5 × 10^5 cells/well). The medium was displaced by 1 mL fresh medium without FBS. The method of cell studies was similar to a method reported previously. For the competitive binding experiments, cells were incubated with the known radiotracers ([^18F]FAPI-42 for the FAP receptor and [^18F]AlF-PSMA-BCH for PSMA) in the presence of 7 different concentrations (10^−5–10^−11 M) of the corresponding unlabeled heterodimers or corresponding monomer and incubated for 60 min at 37 °C. In all experiments, the cells were washed twice with PBS, lysed with 1 M NaOH, and counted using a γ-counter. IC50 values were calculated by fitting the data using a nonlinear regression algorithm (implemented in SPSS). For the radioligand binding studies, the cells were incubated for 5, 15, 30, 60, or 120 min at 37 °C after the addition of the heterodimer or corresponding monomeric radiotracer radiotracers. The blocking experiments were determined by adding the corresponding competitors (4.4 μM 2-PMPA for 22Rv1 cells and 2.3 μM DOTA-FAPI-04 for A549-FAP cells). Radioactivity was measured using a γ-counter, normalized to 1 million cells (1 mio cells), and calculated as the percentage of the applied dose (%ID/1 mio cells). For the internalization experiments, the cells were incubated with the radiolabeled compound for 60 min, washed twice with 1 mL PBS, and then incubated for 10 min with 1 mL glycine HCl (1 M, pH 2.2) to detach the extracellular bound tracer. Next, the cells were washed with PBS (2.0 mL) and lysed with 1 M NaOH (1.5 mL). The radioactivity of the acid wash solution (extracellularly bound tracer) and cell lysate (internalized tracer) was assessed separately using a γ-counter. For the efflux experiments, the radioactive medium was removed after 60 min incubation and replaced with non-radioactive medium. At predetermined time points of 15, 30, 60, and 120 min, the cells were washed with 1.0 mL PBS three times and then lysed. The radioactivity of the remaining cells was assessed using a γ-counter. Each experiment was conducted three times with three or four replicates per independent experiment.
# A549-FAP cells [3] = test: efflux in A549-FAP cells; format: cell-based; conditions: 2 h incubation
# Procedure: (§1) Cells were seeded in 12-well plates 2 days in advance to achieve a final confluence of approximately 80–90% (4–5 × 10^5 cells/well). The medium was displaced by 1 mL fresh medium without FBS. The method of cell studies was similar to a method reported previously. For the competitive binding experiments, cells were incubated with the known radiotracers ([^18F]FAPI-42 for the FAP receptor and [^18F]AlF-PSMA-BCH for PSMA) in the presence of 7 different concentrations (10^−5–10^−11 M) of the corresponding unlabeled heterodimers or corresponding monomer and incubated for 60 min at 37 °C. In all experiments, the cells were washed twice with PBS, lysed with 1 M NaOH, and counted using a γ-counter. IC50 values were calculated by fitting the data using a nonlinear regression algorithm (implemented in SPSS). […] The blocking experiments were determined by adding the corresponding competitors (4.4 μM 2-PMPA for 22Rv1 cells and 2.3 μM DOTA-FAPI-04 for A549-FAP cells). Radioactivity was measured using a γ-counter, normalized to 1 million cells (1 mio cells), and calculated as the percentage of the applied dose (%ID/1 mio cells). […] The radioactivity of the acid wash solution (extracellularly bound tracer) and cell lysate (internalized tracer) was assessed separately using a γ-counter. […] The radioactivity of the remaining cells was assessed using a γ-counter. […]
# 22Rv1 cells = test: efflux in 22Rv1 cells; format: cell-based; conditions: 2 h incubation
# Procedure: as §1
# [4] = tested on: A549-FAP tumor-bearing nude mice; test: tissue biodistribution and blocking in A549-FAP tumor-bearing nude mice; format: in vivo; conditions: 1 h p.i.; for A549-FAP tumor uptake, Blocked / Blood uptake, Blocked / Bone uptake, Blocked / Brain uptake, Blocked / Gall bladder uptake, Blocked / Heart uptake, Blocked / Kidney uptake, Blocked / Liver uptake, Blocked / Lung uptake, Blocked / Muscle uptake, Blocked / Small intestine uptake, Blocked / Spleen uptake, Blocked / Stomach uptake, Blocked: co-injected DOTA-FAPI-04 3 mg/kg
# Procedure: (§2) For the biodistribution and micro-PET imaging studies, male BALB/c nude mice (6–8 weeks) were subcutaneously inoculated with 1 × 10^7 22Rv1 or 5 × 10^6 A549-FAP cells in the right shoulder. Mice were imaged or used in the biodistribution studies when the tumor reached 5–10 mm in diameter.
# (§3) Mice bearing 22Rv1 or A549-FAP (n = 4 in each group) tumors were euthanized 60 min after intravenous administration of each tracer (740–1480 KBq/mouse). In the blocking group, the same experiment was conducted by co-injecting 50 μg of 2-PMPA for mice bearing 22Rv1 tumors or 50 μg of DOTA-FAPI-04 for mice bearing A549-FAP tumors. The organs of interest and tumors were quickly dissected and weighed. Radioactivity was assessed using a γ-counter and calculated as the percentage injected dose per gram (%ID/g).
# [5] = tested on: 22Rv1 tumor-bearing nude mice; test: tissue biodistribution and blocking in 22Rv1 tumor-bearing nude mice; format: in vivo; conditions: 1 h p.i.; for 22Rv1 tumor* uptake, Blocked / Kidney* uptake, Blocked: co-injected 2-PMPA 3 mg/kg
# Procedure: as §2, §3
# [6] = tested on: A549-FAP tumor xenografts; test: dynamic micro-PET imaging in A549-FAP tumor xenografts; format: in vivo; conditions: A549-FAP tumor-bearing nude mice, up to 2 h p.i.
# Procedure: as §2
# Mice bearing xenografted 22Rv1 or A549FAP tumors (n = 3 per group) were anesthetized and placed in the prone position in a micro-PET scanner (Siemens, Erlangen, Germany). Dynamic PET/CT images were acquired 2 h post-injection (p.i.) with the radiotracer (5.55–11.1 MBq). The blocking experiments were performed by co-injecting 3 mg/kg of 2-PMPA for mice bearing 22Rv1 tumors or 3 mg/kg of DOTA-FAPI-04 for mice bearing A549-FAP tumors. The images were reconstructed using a three-dimensional ordered-subset expectation maximum algorithm and converted to %ID/g. Attenuation correction was performed using the unenhanced low-dose CT data. For data analysis, the regions of interest (ROIs) were manually drawn over the tumors and major organs on decay-corrected whole-body coronal images obtained using Inevon Research Workplace 4.1 software.
smiles,measurement,setting,value
N#C[C@@H]1CC(F)(F)CN1C(=O)CNC(=O)c1ccnc2ccc(OCCCN3CCN(C(=O)CCC(=O)NCCCC[C@H](NC(=O)CN4CCN5CCN(CC4)CC(=O)[O][Al]([18F])[O]C(=O)C5)C(=O)NC[C@H]4CC[C@H](C(=O)N[C@H](Cc5ccc6ccccc6c5)C(=O)NCCCC[C@H](NC(=O)N[C@@H](CCC(=O)O)C(=O)O)C(=O)O)CC4)CC3)cc12 [[^18F]AlF-PSMA-FAPI-02],n-octanol/PBS distribution coefficient (logD),[1],−2.04 ± 0.04
same,cell uptake,A549-FAP cells [2]; 5 min,11.66 ± 0.39 % ID/1 million cells
same,"cell uptake, blocked",A549-FAP cells [2]; 5 min,1.28 ± 0.08 % ID/1 million cells
same,cell uptake,A549-FAP cells [2]; 15 min,17.03 ± 0.85 % ID/1 million cells
same,"cell uptake, blocked",A549-FAP cells [2]; 15 min,1.29 ± 0.38 % ID/1 million cells
same,cell uptake,A549-FAP cells [2]; 30 min,23.26 ± 1.59 % ID/1 million cells
same,"cell uptake, blocked",A549-FAP cells [2]; 30 min,1.31 ± 0.16 % ID/1 million cells
same,cell uptake,A549-FAP cells [2]; 60 min,27.02 ± 2.21 % ID/1 million cells
same,"cell uptake, blocked",A549-FAP cells [2]; 60 min,1.59 ± 0.65 % ID/1 million cells
same,cell uptake,A549-FAP cells [2]; 120 min,32.55 ± 1.42 % ID/1 million cells
same,"cell uptake, blocked",A549-FAP cells [2]; 120 min,1.71 ± 0.23 % ID/1 million cells
same,cell efflux,A549-FAP cells [3],lower cellular efflux
same,cell efflux,22Rv1 cells,lower cellular efflux
same,A549-FAP tumor uptake,[4],6.47 ± 0.76 %ID/g
same,Blood uptake,[4],1.98 ± 0.46 %ID/g
same,Bone uptake,[4],5.53 ± 0.18 %ID/g
same,Brain uptake,[4],0.11 ± 0.03 %ID/g
same,Gall bladder uptake,[4],2.23 ± 1.07 %ID/g
same,Heart uptake,[4],0.84 ± 0.17 %ID/g
same,Kidney uptake,[4],23.10 ± 7.91 %ID/g
same,Liver uptake,[4],0.81 ± 0.22 %ID/g
same,Lung uptake,[4],1.37 ± 0.22 %ID/g
same,Muscle uptake,[4],1.35 ± 0.36 %ID/g
same,Small intestine uptake,[4],0.84 ± 0.33 %ID/g
same,Spleen uptake,[4],0.51 ± 0.16 %ID/g
same,Stomach uptake,[4],0.83 ± 0.42 %ID/g
same,"A549-FAP tumor uptake, Blocked",[4],1.11 ± 0.88 %ID/g
same,"Blood uptake, Blocked",[4],0.57 ± 0.19 %ID/g
same,"Bone uptake, Blocked",[4],3.83 ± 0.02 %ID/g
same,"Brain uptake, Blocked",[4],0.07 ± 0.03 %ID/g
same,"Gall bladder uptake, Blocked",[4],1.39 ± 0.20 %ID/g
same,"Heart uptake, Blocked",[4],0.28 ± 0.07 %ID/g
same,"Kidney uptake, Blocked",[4],26.70 ± 10.80 %ID/g
same,"Liver uptake, Blocked",[4],0.41 ± 0.12 %ID/g
same,"Lung uptake, Blocked",[4],0.90 ± 0.24 %ID/g
same,"Muscle uptake, Blocked",[4],0.85 ± 0.39 %ID/g
same,"Small intestine uptake, Blocked",[4],0.55 ± 0.29 %ID/g
same,"Spleen uptake, Blocked",[4],0.30 ± 0.03 %ID/g
same,"Stomach uptake, Blocked",[4],0.37 ± 0.06 %ID/g
same,22Rv1 tumor* uptake,[5],12.85 ± 2.43 %ID/g
same,Kidney* uptake,[5],27.0 ± 11.9 %ID/g
same,"22Rv1 tumor* uptake, Blocked",[5],6.85 ± 1.53 %ID/g
same,"Kidney* uptake, Blocked",[5],2.94 ± 0.35 %ID/g
same,time–activity curves (micro-PET),[6],"rapid uptake and excellent retention in tumors, as well as rapid clearance from non-target organs via the kidneys"
N#C[C@@H]1CC(F)(F)CN1C(=O)CNC(=O)c1ccnc2ccc(OCCCC(=O)NCCCC[C@H](NC(=O)CN3CCN4CCN(CC3)CC(=O)[O][Al]([18F])[O]C(=O)C4)C(=O)NCC3CCC(C(=O)N[C@H](Cc4ccc5ccccc5c4)C(=O)NCCCC[C@H](NC(=O)N[C@@H](CCC(=O)O)C(=O)O)C(=O)O)CC3)cc12 (some centres unmarked) [[^18F]AlF-PSMA-FAPI-01],n-octanol/PBS distribution coefficient (logD),[1],−2.74 ± 0.02
same,cell uptake,A549-FAP cells [2]; 5 min,8.15 ± 0.31 % ID/1 million cells
same,"cell uptake, blocked",A549-FAP cells [2]; 5 min,0.67 ± 0.07 % ID/1 million cells
same,cell uptake,A549-FAP cells [2]; 15 min,16.57 ± 0.98 % ID/1 million cells
same,"cell uptake, blocked",A549-FAP cells [2]; 15 min,0.71 ± 0.09 % ID/1 million cells
same,cell uptake,A549-FAP cells [2]; 30 min,23.73 ± 0.33 % ID/1 million cells
same,"cell uptake, blocked",A549-FAP cells [2]; 30 min,0.77 ± 0.01 % ID/1 million cells
same,cell uptake,A549-FAP cells [2]; 60 min,30.36 ± 3.53 % ID/1 million cells
same,"cell uptake, blocked",A549-FAP cells [2]; 60 min,0.83 ± 0.09 % ID/1 million cells
same,cell uptake,A549-FAP cells [2]; 120 min,28.23 ± 2.97 % ID/1 million cells
same,"cell uptake, blocked",A549-FAP cells [2]; 120 min,1.16 ± 0.06 % ID/1 million cells
same,A549-FAP tumor uptake,[4],6.40 ± 0.32 %ID/g
same,Blood uptake,[4],2.36 ± 0.60 %ID/g
same,Bone uptake,[4],4.09 ± 0.76 %ID/g
same,Brain uptake,[4],0.16 ± 0.03 %ID/g
same,Gall bladder uptake,[4],2.02 ± 0.40 %ID/g
same,Heart uptake,[4],1.56 ± 0.14 %ID/g
same,Kidney uptake,[4],23.88 ± 3.01 %ID/g
same,Liver uptake,[4],1.38 ± 0.11 %ID/g
same,Lung uptake,[4],1.82 ± 0.18 %ID/g
same,Muscle uptake,[4],2.18 ± 0.48 %ID/g
same,Small intestine uptake,[4],1.23 ± 0.21 %ID/g
same,Spleen uptake,[4],0.99 ± 0.17 %ID/g
same,Stomach uptake,[4],1.03 ± 0.13 %ID/g
same,"A549-FAP tumor uptake, Blocked",[4],1.38 ± 0.77 %ID/g
same,"Blood uptake, Blocked",[4],0.88 ± 0.62 %ID/g
same,"Bone uptake, Blocked",[4],1.53 ± 0.21 %ID/g
same,"Brain uptake, Blocked",[4],0.09 ± 0.03 %ID/g
same,"Gall bladder uptake, Blocked",[4],1.67 ± 0.32 %ID/g
same,"Heart uptake, Blocked",[4],0.41 ± 0.02 %ID/g
same,"Kidney uptake, Blocked",[4],28.65 ± 6.05 %ID/g
same,"Liver uptake, Blocked",[4],0.79 ± 0.37 %ID/g
same,"Lung uptake, Blocked",[4],1.66 ± 0.33 %ID/g
same,"Muscle uptake, Blocked",[4],0.32 ± 0.05 %ID/g
same,"Small intestine uptake, Blocked",[4],1.04 ± 0.53 %ID/g
same,"Spleen uptake, Blocked",[4],0.67 ± 0.20 %ID/g
same,"Stomach uptake, Blocked",[4],0.91 ± 0.43 %ID/g
same,22Rv1 tumor* uptake,[5],12.37 ± 0.40 %ID/g
same,Kidney* uptake,[5],23.4 ± 9.22 %ID/g
same,"22Rv1 tumor* uptake, Blocked",[5],5.03 ± 0.75 %ID/g
same,"Kidney* uptake, Blocked",[5],2.85 ± 0.38 %ID/g
same,time–activity curves (micro-PET),[6],"rapid uptake and excellent retention in tumors, as well as rapid clearance from non-target organs via the kidneys"
